Measured values reported in US9580432B2, “Fused pyrimidine compound or salt thereof” (TAIHO PHARMACEUTICAL CO., LTD., priority 2013, dated 2017).

These compounds were tested against purified recombinant human BTK protein (Homo sapiens (Human), UniProt Q06187) (assay: Measurement of BTK inhibitory activity (in vitro)). Details: FL-PEPTIDE 2 substrate 1 μM, ATP 45 μM, 40 minutes at 25° C.
Format: biochemical
From the text: With regard to the setting of the conditions for a method for measuring the inhibitory activity of a compound against BTK kinase activity in vitro, it is described in the consumable reagent supplies price list for LabChip (registered trademark) series of PerkinElmer, Inc. that FL-PEPTIDE 2 corresponds to a substrate peptide for the measurement of BTK kinase activity. Therefore, FL-PEPTIDE 2 was used as a substrate. The purified recombinant human BTK protein used in the test was purchased from Carna Biosciences, Inc.
With regard to the measurement of the inhibitory activity of the compounds, firstly, the compounds of the present invention were diluted stepwise with dimethyl sulfoxide (DMSO). Subsequently, BTK protein, a substrate peptide (final concentration was 1 μM), magnesium chloride (final concentration was 10 mM), ATP (final concentration was 45 μM), and a DMSO solution of the compounds of the present invention (final concentration of DMSO was 5%) were added to a buffer solution for kinase reaction (20 mM HEPES (pH 7.5), 2 mM dithiotheitol, 0.01% Triton X-100), and after the solution was incubated for 40 minutes at 25° C., a kinase reaction was carried out. The reaction was terminated by adding EDTA thereto in order to obtain a final concentration of 30 mM. Finally, a substrate peptide that was not phosphorylated (S) and a phosphorylated peptide (P) were separated and detected by microchannel capillary electrophoresis using a LabChip EZ Reader II (PerkinElmer, Inc.).

purified recombinant human BTK protein, sequence (Q06187 whole entry): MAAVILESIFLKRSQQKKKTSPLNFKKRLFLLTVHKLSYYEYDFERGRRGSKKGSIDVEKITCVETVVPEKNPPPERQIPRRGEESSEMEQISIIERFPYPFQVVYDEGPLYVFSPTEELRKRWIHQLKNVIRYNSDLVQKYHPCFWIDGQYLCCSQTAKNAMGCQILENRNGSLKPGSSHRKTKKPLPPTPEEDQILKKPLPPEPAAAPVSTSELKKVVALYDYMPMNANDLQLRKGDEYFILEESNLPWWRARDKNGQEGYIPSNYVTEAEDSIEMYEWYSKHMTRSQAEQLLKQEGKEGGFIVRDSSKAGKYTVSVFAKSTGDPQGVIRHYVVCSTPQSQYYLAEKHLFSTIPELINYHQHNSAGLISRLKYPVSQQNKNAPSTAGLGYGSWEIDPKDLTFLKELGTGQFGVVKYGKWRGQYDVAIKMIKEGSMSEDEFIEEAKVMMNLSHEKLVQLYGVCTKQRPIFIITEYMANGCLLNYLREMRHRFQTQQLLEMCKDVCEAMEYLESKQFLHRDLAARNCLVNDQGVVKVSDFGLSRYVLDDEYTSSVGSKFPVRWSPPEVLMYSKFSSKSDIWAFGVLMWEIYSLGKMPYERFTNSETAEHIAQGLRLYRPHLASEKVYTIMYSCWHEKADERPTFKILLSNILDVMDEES

Structure (SMILES) | IC50
C=CC(=O)N1CCC[C@@H](n2nc(C(=O)Nc3nc4cc(-c5cccs5)ccc4o3)c3c(N)ncnc32)C1 [Example 3, (R)-1-(1-acryloylpiperidin-3-yl)-4-amino-N-(5-(thiophen-2-yl)benzo[d]oxazol-2-yl)-1H-pyrazolo[3,4-d]pyrimidine-3-carboxamide] | 0.443 nM
C=CC(=O)N1CC[C@@H](n2nc(C(=O)Nc3nc4cc(-c5ccc(Cl)cc5)ccc4o3)c3c(N)ncnc32)C1 [Example 31, (R)-1-(1-acryloylpyrrolidin-3-yl)-4-amino-N-(5-(4-chlorophenyl)benzo[d]oxazol-2-yl)-1H-pyrazolo[3,4-d]pyrimidine-3-carboxamide] | 1.67 nM
CCN(C)C/C=C/C(=O)N1CC[C@@H](n2nc(C(=O)Nc3nc4cc(Cl)ccc4o3)c3c(N)ncnc32)C1 [Example 33, (R,E)-4-amino-N-(5-chlorobenzo[d]oxazol-2-yl)-1-(1-(4-(ethyl(methyl)amino)but-2-enoyl)pyrrolidin-3-yl)-1H-pyrazolo[3,4-d]pyrimidine-3-carboxamide] | 0.887 nM
C=CC(=O)N1CC[C@@H](n2nc(C(=O)Nc3nc4cc(C(F)(F)F)ccc4o3)c3c(N)ncnc32)C1 [Example 43, (R)-1-(1-acryloylpyrrolidin-3-yl)-4-amino-N-(5-(trifluoromethyl)benzo[d]oxazol-2-yl)-1H-pyrazolo[3,4-d]pyrimidine-3-carboxamide] | 0.546 nM
C=CC(=O)N1CC[C@@H](n2cc(C(=O)Nc3nc4cc(-c5ccccc5)ccc4o3)c3c(N)ncnc32)C1 [Example 55, (R)-7-(1-acryloylpyrrolidin-3-yl)-4-amino-N-(5-phenylbenzo[d]oxazol-2-yl)-7H-pyrrolo[2,3-d]pyrimidine-5-carboxamide] | 0.799 nM
CCN(CC)C/C=C/C(=O)N1CC[C@@H](n2cc(C(=O)Nc3nc4cc(-c5ccccc5)ccc4o3)c3c(N)ncnc32)C1 [Example 58, (R,E)-4-amino-N-(5-phenylbenzo[d]oxazol-2-yl)-7-(1-(4-(diethylamino)but-2-enoyl)pyrrolidin-3-yl) 7H-pyrrolo[2,3-d]pyrimidine-5-carboxamide] | 1.84 nM
C=CC(=O)N1CCC[C@@H](n2nc(C(=O)Nc3nc4cccc(Cl)c4o3)c3c(N)ncnc32)C1 [Example 64, (R)-1-(1-acryloylpiperidin-3-yl)-4-amino-N-(7-chlorobenzo[d]oxazol-2-yl)-1H-pyrazolo[3,4-d]pyrimidine-3-carboxamide] | 8.09 nM
C=CC(=O)N1CC[C@H](n2nc(C(=O)Nc3nc4ccccc4o3)c3c(N)ncnc32)C1 [Example 65, (S)-1-(1-acryloylpyrrolidin-3-yl)-4-amino-N-(benzo[d]oxazol-2-yl)-1H-pyrazolo[3,4-d]pyrimidine-3-carboxamide] | 79 nM
C=CC(=O)N1CCC(n2nc(C(=O)Nc3nc4ccccc4o3)c3c(N)ncnc32)CC1 [Example 69, 1-(1-acryloylpiperidin-4-yl)-4-amino-N-(benzo[d]oxazol-2-yl)-1H-pyrazolo[3,4-d]pyrimidine-3-carboxamide] | 162 nM
C=CC(=O)N1CC(n2nc(C(=O)Nc3nc4ccccc4o3)c3c(N)ncnc32)C1 [Example 74, 1-(1-acryloylazetidin-3-yl)-4-amino-N-(benzo[d]oxazol-2-yl)-1H-pyrazolo[3,4-d]pyrimidine-3-carboxamide] | 21.4 nM
CC1=CC(C)=[N+]2C1=Cc1ccc(CCC(=O)NCCN3CCN(C/C=C/C(=O)N4CCC[C@@H](n5nc(C(=O)Nc6nc7ccccc7o6)c6c(N)ncnc65)C4)CC3)n1[B-]2(F)F [Example P-1, (R,E)-7-(3-((2-(4-(4-(3-(4-amino-3-(benzo[d]oxazol-2-ylcarbamoyl)-1H-pyrazolo[3,4-d]pyrimidin-1-yl)piperidin-1-yl)-4-oxobut-2-en-1-yl)piperazin-1-yl)ethyl)amino)-3-oxopropyl) 5,5-difluoro-1,3-dimethyl-5H-dipyrrolo[1,2-c:2′,1′-f][1,3,2]diazaborinin-4-ium-5-uide] | 31.4 nM
Nc1ncnc2c1c(C(=O)Nc1nc3ccccc3o1)nn2[C@@H]1CCCN(C(=O)/C=C/CN2CCN(CCNC(=O)CCCC[C@@H]3SC[C@@H]4NC(=O)N[C@@H]43)CC2)C1 [Example P-2, 4-amino-N-(benzo[d]oxazol-2-yl)-1-((R)-1-((E)-4-(4-(2-(5-((3aS,4S,6aR)-2-oxohexahydro-1H-thieno[3,4-d]imidazol-4-yl)pentanamido)ethyl)piperazin-1-yl)but-2-enoyl)piperidin-3-yl)-1H-pyrazolo[3,4-d]pyrimidine-3-carboxamide] | 43.9 nM

What follows are compounds tested on A431 cells / TMD8 cells (assay: Proliferation inhibitory activity against cell lines expressing BTK and EGFR (in vitro), comparison of selectivity). Details: ratio from GI50 (nM), 3 days culture, CELLTITER GLO.
Format: cell-based, human
From the text: TMD8 cells, which are of a diffuse large B-cell lymphoma cell line expressing BTK, were suspended in RPMI1640 medium (manufactured by Life Technologies Corp.) containing 10% fetal bovine serum. A431 cells, which are of an EGFR-overexpressing, highly activated human epidermoid carcinoma cell line, were suspended in DMEM, high glucose medium (manufactured by Life Technologies Corp.) containing 10% fetal bovine serum. The cell suspensions were inoculated into each well of 384-well flat-bottomed microplates, and the cells were cultured for 1 day at 37° C. in an incubator containing 5% carbon dioxide gas. […] A DMSO solution of the test compounds was diluted with the medium used in the suspension of the each cells, and this was added to each of the wells of the cell culture plates such that the final concentration of DMSO would be 0.2%. The cells were further cultured for 3 days at 37° C. in an incubator containing 5% carbon dioxide gas. […] Proliferation inhibition ratio (%)=(C−T)/(C−C0)×100
T: Luminescence intensity of a well in which the test compound was added
C: Luminescence intensity of a well in which the test compound was not added
C0: Luminescence intensity of a well measured before the addition of the test compound
When a comparison is made between the cell proliferation inhibitory activity against A431 cells that depends on the EGFR proliferation signaling and the cell proliferation inhibitory activity against TMD8 cells that depends on the BTK proliferation signaling, the influence of the respective kinases at a cellular level is able to be evaluated. That is, when the “A431 cell proliferation inhibition ratio/TMD8 cell proliferation inhibition ratio” is calculated, it is contemplated that as the value of the ratio is larger, the selectivity to BTK over EGFR in the cells is higher.

Structure (SMILES) | A431 cell proliferation inhibition ratio/TMD8 cell proliferation inhibitio ratio
C=CC(=O)N1CCC[C@@H](n2nc(C(=O)Nc3nc4cc(OC)ccc4o3)c3c(N)ncnc32)C1 [Example 7, (R)-1-(1-acryloylpiperidin-3-yl)-4-amino-N-(5-methoxybenzo[d]oxazol-2-yl)-1H-pyrazolo[3,4-d]pyrimidine-3-carboxamide] | 5440.9
C=CC(=O)N1CCC[C@@H](n2nc(C(=O)Nc3nc4cc(CCOC)ccc4o3)c3c(N)ncnc32)C1 [Example 8, (R)-1-(1-acryloylpiperidin-3-yl)-4-amino-N-(5-(2-methoxyethyl)benzo[d]oxazol-2-yl)-1H-pyrazolo[3,4-d]pyrimidine-3-carboxamide] | 25303.8
C/C=C/C(=O)N1CCC[C@@H](n2nc(C(=O)Nc3nc4ccccc4o3)c3c(N)ncnc32)C1 [Example 14, (R,E)-4-amino-N-(benzo[d]oxazol-2-yl)-1-(1-(but-2-enoyl)piperidin-3-yl)-1H-pyrazolo[3,4-d]pyrimidine-3-carboxamide] | >1400.6
CN(C)C/C=C/C(=O)N1CCC[C@@H](n2nc(C(=O)Nc3nc4cc(-c5cccs5)ccc4o3)c3c(N)ncnc32)C1 [Example 21, (R,E)-4-amino-N-(5-(thiophen-2-yl)benzo[d]oxazol-2-yl)-1-(1-(4-(dimethylamino)but-2-enoyl)piperidin-3-yl)-1H-pyrazolo[3,4-d]pyrimidine-3-carboxamide] | 4909.1
C=CC(=O)N1CC[C@@H](n2nc(C(=O)Nc3nc4ccccc4o3)c3c(N)ncnc32)C1 [Example 27, (R)-1-(1-acryloylpyrrolidin-3-yl)-4-amino-N-(benzo[d]oxazol-2-yl)-1H-pyrazolo[3,4-d]pyrimidine-3-carboxamide] | 4155.9
C=CC(=O)N1CC[C@@H](n2nc(C(=O)Nc3nc4cc(OC)ccc4o3)c3c(N)ncnc32)C1 [Example 38, (R)-1-(1-acryloylpyrrolidin-3-yl)-4-amino-N-(5-methoxybenzo[d]oxazol-2-yl)-1H-pyrazolo[3,4-d]pyrimidine-3-carboxamide] | 2868.1
C=CC(=O)N1CC[C@@H](n2nc(C(=O)Nc3nc4cc(-c5ccccc5)ccc4o3)c3c(N)ncnc32)C1 [Example 41, (R)-1-(1-acryloylpyrrolidin-3-yl)-4-amino-N-(5-phenylbenzo[d]oxazol-2-yl)-1H-pyrazolo[3,4-d]pyrimidine-3-carboxamide] | 1667.7
C=CC(=O)N1CCC(n2nc(C(=O)Nc3nc4cc(Cl)ccc4o3)c3c(N)ncnc32)C1 (centres unmarked) [Example 84, 1-(1-acryloylpyrrolidin-3-yl)-4-amino-N-(5-chlorobenzo[d]oxazol-2-yl)-1H-pyrazolo[3,4-d]pyrimidine-3-carboxamide] | >7132.7
